Assay results: publication PMC10590383, “Repurposing conformational changes in ANL superfamily enzymes to rapidly generate biosensors for organic and amino acids” (Nature Communications, 2023)

How the values were obtained:
GECFINDER-Glu = molecular target: T1, GECFINDER-Glu (Bacillus subtilis, UniProt P39845); test: Fluorescence dose-response of purified cpEGFP sensors (0.75 uM) in 100 mM Tris-HCl pH 7.5, room temperature, 1 mM ATP, 2.5 mM MgCl2; excitation 400, 460 or 480 nm by sensor, emission 510 nm; logistic five-parameter fit.; type: biochemical; conditions: n = 3
T1 construct: gene ppsA; PpsA-GluA-PCP; cpEGFP inserted, linkers HS-WL
Protocol: (§1) Fig. 3 Dose–response curves and fluorescence spectrums of […]s. a, c, e, g, i, k Dose–response curve of purified […]s with increasing concentrations of ligand in 100 mM Tris-HCl buffer (pH=7.5). The normalized ΔF/F0 value increased after ligand binding. All data shown are mean ± S.D. (n = 3 biologically independent samples). b, d, f, h, j, l The fluorescence spectra of […]s changed as the ligand concentration increased. All data shown are mean ± S.D. (n = 3 biologically independent samples). Source data are provided as a Source data file.
(§2) The study conducted dose–response curve, substrate specificity, and fluorescent spectrum analyses in 100-mM Tris buffer (pH = 7.5), while pH stability experiments were performed in 100-mM Tris buffer at three different pH values (6.5, 7.5, and 8.5) at room temperature. […] protein at a concentration of 0.75 μM, various small molecule concentrations, 1 mM ATP, and 2.5 mM MgCl2 were used in the experiments. Fluorescent signals were detected using a Microplate Reader (Synergy H4, Bio Tek) at an excitation/emission wavelength of 460 nm/510 nm or 480 nm/510 nm. The dose-response curve was determined immediately after the addition of the analyte. The total duration of the measurement was 15 min, with readings taken at one-minute intervals. The dose-response curve was plotted using the fluorescence values obtained after achieving stability in the fluorescence signal. The dose-response curves were fitted using the logistic model LOGISTIC5 available in Origin 2021, which could provide a more adequate fit to asymmetric dose-response data[62],[63]. Excitation spectra were scanned from 300 to 540 nm with a step size of 5 nm, and the emission wavelength was set to 560 nm. Emission spectra were scanned from 470 to 700 nm with a step size of 5 nm, and the excitation wavelength was set to 450 nm. The thermal stability of […] was analyzed using the UNcle multifunctional protein stability analysis system. Measurements were performed in 20 mM MOPS buffer with 2 mM DTT at a sample concentration of 1 mg/mL. Absolute fluorescence quantum yields were measured using an absolute photoluminescence quantum yield spectrometer (FS5, Edinburgh).

[1] = Dose–response curve of purified […] with glutamic acid; type: biochemical; set-up: key: normalized ΔF/F0 (fluorescence change relative to baseline F0)
Protocol: as §1, §2

[2] = Substrate (ligand) specificity of […]s; type: biochemical; conditions: Supplementary Fig. 3 c; substrate specificity
Protocol: (§3) Fig. 4 Engineering ligand specificity of GrsA-PheA for generating […]s. a The selectivity-conferring code of Phe and Leu A domains. b–f Dose–response curve of purified […]s with increasing concentrations of ligands in 100 mM Tris-HCl buffer (pH=7.5). All data shown are means ± S.D. (n = 3 biologically independent samples). g A series of […] reactions was tested to show the […]’s specificity with 20 proteinogenic amino acids. The values on the heatmap represent the ΔF/F0 value normalized to each […]’s maximal ΔF/F0 value ((ΔF/F0)/maximal ΔF/F0). The concentrations of 20 amino acids were 100 μM. The color indicates the average value of three independent biological replicates after 15 min. All data shown are means ± S.D. (n = 3 biologically independent samples). Source data are provided as a Source data file.
Ligand specificity is an important biosensors feature. Generally, the NRPS A domains have high specificity for their substrates because they are the first “gatekeeper” of NRPSs and ensure that the correct monomers are activated and thioesterified[32],[33]. Therefore, we speculated that this property would be inherited by our […]s because the ligand-binding pockets were unchanged during the […] creation process. Twenty proteinogenic amino acids were used to test the ligand specificity of […]s. […] We also investigated the dependence of […]s on Mg^2+ and ATP (Supplementary Fig. 4). […] This phenomenon corroborates with the distinct conformational changes observed in Hinge A of Nt4CL2 (Mg^2++ATP) (PDB ID: 5BSM) and Nt4CL2 (Coumaroyl-AMP) (PDB ID: 5BST) reported in the literature (Supplementary Fig. 4k), where the direction of motion in hinge A differs. […] During the determination of quantum yield, we observed that the absolute quantum yield of the […] variants ranged from 0.3 to 0.6 upon addition of the respective substrates, which show no significant difference with that reported in literature. The specific values are provided in Supplementary Table 2.
as §2

[3] = Fluorescence spectra / excitation wavelength scan of […]s; type: physicochemical; conditions: Wavelength 300 nm
Protocol: Fig. 3 Dose–response curves and fluorescence spectrums of […]s. a, c, e, g, i, k Dose–response curve of purified […]s with increasing concentrations of ligand in 100 mM Tris-HCl buffer (pH=7.5). […] All data shown are mean ± S.D. (n = 3 biologically independent samples). Source data are provided as a Source data file.
as §2

[4] = Response of purified […] to proline; type: biochemical
Protocol: as §1, §2

GECFINDER-SβF = test: Fluorescence dose-response of purified binding-pocket-engineered sensors (0.75 uM) in 100 mM Tris-HCl pH 7.5, room temperature, 1 mM ATP, 2.5 mM MgCl2, excitation 460 or 480 nm, emission 510 nm; logistic five-parameter fit.; type: biochemical; conditions: n = 3
Protocol: as §3, §2

T1 sequence (P39845 434-1036): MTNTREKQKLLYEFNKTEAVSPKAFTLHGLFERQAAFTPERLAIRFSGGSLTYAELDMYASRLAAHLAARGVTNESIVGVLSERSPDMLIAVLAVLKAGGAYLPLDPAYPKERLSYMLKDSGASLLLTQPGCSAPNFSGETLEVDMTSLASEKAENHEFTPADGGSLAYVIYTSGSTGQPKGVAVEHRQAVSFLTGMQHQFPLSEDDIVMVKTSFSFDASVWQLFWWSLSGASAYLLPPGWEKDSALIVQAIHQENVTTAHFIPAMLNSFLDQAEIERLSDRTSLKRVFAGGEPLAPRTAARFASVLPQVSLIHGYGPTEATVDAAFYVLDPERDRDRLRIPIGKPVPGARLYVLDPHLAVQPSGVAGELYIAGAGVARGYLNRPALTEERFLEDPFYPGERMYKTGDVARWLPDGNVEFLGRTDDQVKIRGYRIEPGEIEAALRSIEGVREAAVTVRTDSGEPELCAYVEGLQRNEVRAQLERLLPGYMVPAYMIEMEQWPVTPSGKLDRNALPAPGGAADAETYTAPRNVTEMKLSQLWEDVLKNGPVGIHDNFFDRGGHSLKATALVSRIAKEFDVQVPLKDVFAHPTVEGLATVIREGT

N[C@@H](CCC(=O)O)C(=O)O [Glu, glutamic acid]
EC50 (GECFINDER-Glu): 42.9 ± 3.93 µM

N[C@@H](CCC(=O)O)C(=O)O [Glu]
Dose-response, AVE of Repeat 1-3 (Fig. 3 e) ([1]; Glu 0.1 μM): 0 | Dose-response, AVE of Repeat 1-3 (Fig. 3 e) ([1]; Glu 1 μM): 0.02632 | Dose-response, AVE of Repeat 1-3 (Fig. 3 e) ([1]; Glu 2 μM): 0.0378 | Dose-response, AVE of Repeat 1-3 (Fig. 3 e) ([1]; Glu 5 μM): 0.1147 | Dose-response, AVE of Repeat 1-3 (Fig. 3 e) ([1]; Glu 10 μM): 0.1961 | Dose-response, AVE of Repeat 1-3 (Fig. 3 e) ([1]; Glu 20 μM): 0.322 | Dose-response, AVE of Repeat 1-3 (Fig. 3 e) ([1]; Glu 50 μM): 0.5379 | Dose-response, AVE of Repeat 1-3 (Fig. 3 e) ([1]; Glu 100 μM): 0.6984 | Dose-response, AVE of Repeat 1-3 (Fig. 3 e) ([1]; Glu 200 μM): 0.8758 | Dose-response, AVE of Repeat 1-3 (Fig. 3 e) ([1]; Glu 500 μM): 1.002 | Dose-response, AVE of Repeat 1-3 (Fig. 3 e) ([1]; Glu 750 μM): 0.9874 | Dose-response, AVE of Repeat 1-3 (Fig. 3 e) ([1]; Glu 1000 μM): 0.9487 | fluorescence response of GECFINDER to each substrate, AVE of 3 repeats [2]: -0.007518 | Wavelength scan, AVE of Repeat 1-3 (Fig. 3 f) ([3]; 0.1 μM Glu): 86.3333 | Wavelength scan, AVE of Repeat 1-3 (Fig. 3 f) ([3]; 5 μM Glu): 106 | Wavelength scan, AVE of Repeat 1-3 (Fig. 3 f) ([3]; 500 μM Glu): 120.667

O=C(O)[C@@H]1CCCN1 [Pro]
Dose-response, AVE of Repeat 1-3 (Fig. 3 g) ([4]; Pro 0.0002 μM): -7.17e-17 | Dose-response, AVE of Repeat 1-3 (Fig. 3 g) ([4]; Pro 0.002 μM): 0.0174 | Dose-response, AVE of Repeat 1-3 (Fig. 3 g) ([4]; Pro 0.02 μM): 0.02154 | Dose-response, AVE of Repeat 1-3 (Fig. 3 g) ([4]; Pro 0.2 μM): 0.03875 | Dose-response, AVE of Repeat 1-3 (Fig. 3 g) ([4]; Pro 2 μM): 0.04783 | Dose-response, AVE of Repeat 1-3 (Fig. 3 g) ([4]; Pro 20 μM): 0.05475 | Dose-response, AVE of Repeat 1-3 (Fig. 3 g) ([4]; Pro 100 μM): 0.06466 | Dose-response, AVE of Repeat 1-3 (Fig. 3 g) ([4]; Pro 200 μM): 0.07263 | Dose-response, AVE of Repeat 1-3 (Fig. 3 g) ([4]; Pro 500 μM): 0.09025 | Dose-response, AVE of Repeat 1-3 (Fig. 3 g) ([4]; Pro 1000 μM): 0.09711 | Dose-response, AVE of Repeat 1-3 (Fig. 3 g) ([4]; Pro 2000 μM): 0.09414 | Dose-response, AVE of Repeat 1-3 (Fig. 3 g) ([4]; Pro 4000 μM): 0.08171 | fluorescence response of GECFINDER to each substrate, AVE of 3 repeats [2]: -0.002038 | Wavelength scan, AVE of Repeat 1-3 (Fig. 3 h) ([3]; 0.0002 μM Pro): 1526 | Wavelength scan, AVE of Repeat 1-3 (Fig. 3 h) ([3]; 20 μM Pro): 1565 | Wavelength scan, AVE of Repeat 1-3 (Fig. 3 h) ([3]; 2000 μM Pro): 1543.33

N[C@H](CC(=O)O)c1ccccc1 [R-β-Phe, R-β-phenylalanine]
EC50 (GECFINDER-SβF): 54.6 ± 7.66 µM
